Laboratory results: US20220267288A1, “CARDIAC THERAPEUTIC” (priority 2019, published 2022)

Columns and labels:
[1] = In vivo pharmacokinetic studies in dogs; details: for acute toxicity and fatality in vivo: PK study
Protocol: All experiments were approved by the Animal Research Committee for Animal Experimentation of Toho University (No. 12-52-151) and performed in accordance with the Guidelines for the Care and Use of Laboratory Animals of Toho University. […] Plasma samples were stored at −80° C. and thawed in ice before use.
Ice cold NDEA internal standard (IS) solution was used for protein precipitation at a plasma:IS ratio of 1:3. The mixture was vortex-mixed for 1 min, followed by centrifugation at 14,000 g at 4° C. for 15 min. The supernatant was then transferred into a vial for LC/MS/MS analysis.
The LC/MS/MS system consisted of Infinity ultra-high-pressure liquid chromatography (UHPLC) system (Agilent Technologies Inc., Santa Clara, Calif.) with the AB SCIEX QTRAP® 5500 tandem mass spectrometry (MS/MS) system (AB SCIEX, Framingham, Mass.). MultiQuant software version 1.4.0.18067 (Applied Biosystems) was used to perform all chromatographic peak integration.
Chromatographic separation was performed using ACQUITY UPLC BEH C18 column, 1.7 μm, 2.1×50 mm (Waters, Milford, Mass.), with a gradient elution programme. The mobile phases were 0.2% acetic acid in 5 mM ammonium acetate in water (A) and 0.2% acetic acid in ACN (B). The elution conditions were linear gradient 30-95% B (0-1.60 min), isocratic at 95% B (1.61-1.99 min), and isocratic at 30% B (2.00-2.50 min). Multiple reaction monitoring (MRM) transitions were optimized for NDEA (internal standard, IS), dronedarone and poyendarone.
Individual pharmacokinetic parameters were estimated using NCA for IV bolus data (Model 201), using WinNonlin® (Pharsight, USA). […] Data points included in the calculation of Lambda Z (Az) were first determined by WinNonlin®, and then visually assessed and modified accordingly. Other parameters calculated include apparent total plasma clearance (CL), apparent volume of distribution based on terminal phase (Vz), apparent elimination half-life (T1/2), apparent volume at steady state (Vss), mean residence time (MRT) and MRT extrapolated to infinity (MRTinf). […]

CYP3A5 = molecular target: T1, CYP3A5 (Homo sapiens, UniProt P20815); details: literature value, similar experimental set-up; cited from earlier work
T1 construct: purchased BD Gentest (Woburn, Mass.)
T1 sequence (P20815 whole entry): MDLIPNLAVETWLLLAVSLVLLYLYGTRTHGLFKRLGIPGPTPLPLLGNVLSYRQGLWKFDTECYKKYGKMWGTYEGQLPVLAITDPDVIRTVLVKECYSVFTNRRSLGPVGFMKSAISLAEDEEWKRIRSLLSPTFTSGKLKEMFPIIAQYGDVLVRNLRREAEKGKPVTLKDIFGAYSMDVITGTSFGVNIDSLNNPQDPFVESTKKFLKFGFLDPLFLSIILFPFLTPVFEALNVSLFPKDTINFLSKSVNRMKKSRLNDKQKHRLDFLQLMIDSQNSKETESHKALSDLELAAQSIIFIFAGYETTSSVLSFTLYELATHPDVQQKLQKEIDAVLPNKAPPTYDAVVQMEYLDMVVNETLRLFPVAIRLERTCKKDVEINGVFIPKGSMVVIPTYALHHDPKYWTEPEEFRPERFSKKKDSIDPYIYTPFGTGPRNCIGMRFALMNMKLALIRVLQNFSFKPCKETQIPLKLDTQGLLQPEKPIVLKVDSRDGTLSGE

[2] = system: chronic atrioventricular block dog; experiment: Paroxysmal atrial fibrillation model in chronic atrioventricular block dogs; format: in vivo
Protocol: Experiments were performed using female beagle dogs weighing approximately 10 kg (n=4). Animals were obtained through Kitayama Labes Co., Ltd. (Nagano, Japan). All experiments were approved by the Toho University Animal Care and User Committee (No. 19-52-395) and performed according to the Guideline for the Care and Use of Laboratory Animals of Toho University.
The catheter ablation technique of atrioventricular node was employed as previously described^11,14. The dogs were anesthetized with pentobarbital sodium (30 mg/kg, i.v.). After intubation with a cuffed endotracheal tube, the respiration was controlled with room air using a volume-limited ventilator (SN-480-3; Shinano Manufacturing Co., Ltd., Tokyo, Japan). Tidal volume and respiratory rate were set at 20 mL/kg and 15 breaths/min, respectively. Heparin calcium (100 IU/kg, i.v.) was administered to prevent blood clotting. The surface lead II electrocardiogram was continuously monitored. A quad-polar electrodes catheter with a large tip of 4 mm (D7-DL-252; Cordis-Webster Inc., CA, USA) was inserted through the catheter sheath (FAST-CATH™ 406119; St. Jude Medical Daig Division, Inc., Minnetonka, Minn., USA) placed at the right femoral vein and positioned across the tricuspid valve under the guide of bipolar electrogram from the distal electrode pair. The optimal site for the atrioventricular node ablation; namely, the compact atrioventricular node, was determined on the basis of the intra-cardiac electrogram, of which a very small His deflection was recorded and atrial/ventricular voltage ratio was >2. The power source for the atrioventricular nodal ablation was obtained from an electrosurgical generator (MS-1500; Senko Medical Instrument Manufacturing Co., Ltd., Tokyo, Japan), which delivers continuous unmodulated radiofrequency energy at a frequency of 500 kHz. After determining the proper location, the radiofrequency energy of 20 W was delivered for 10 s from the tip electrode to an indifferent patch electrode positioned on the animal's back, which was continued then for 30 s if junctional ectopic complexes were induced. The endpoint of this procedure was the development of the complete atrioventricular block with an onset of stable idioventricular escaped rhythm. All surgical procedures described above were performed under the sterile condition.
The paroxysmal atrial fibrillation model was prepared as previously reported^12,13. More than 3 months after the induction of atrioventricular block, the dogs (n=4) were anesthetized with pentobarbital sodium (30 mg/kg, i.v.). After intubation with a cuffed endotracheal tube, the dogs were artificially ventilated with 0.5-1.5% isoflurane in oxygen using a volume-limited ventilator (SN-480-3; Shinano Manufacturing Co., Ltd.). Tidal volume and respiratory rate were set at 20 mL/kg and 15 breaths/min, respectively. The surface lead II electrocardiogram was obtained from the limb electrodes. […] An indwelling needle (Surflo® 18G; Terumo Corporation, Tokyo, Japan) was placed at the right femoral artery, through which the arterial blood pressure was measured.
Three sets of standard 6-French quad-polar electrodes catheter (Cordis-Webster Inc.) were used. First one was positioned at the high right atrium through the right femoral vein to electrically pace the sinus nodal area and to simultaneously obtain the right atrial electrogram. Second one was positioned in the esophagus via os to record to the left atrial electrogram. Third one was positioned at the inter-atrial septum of the right atrium through the left femoral vein to electrically induce paroxysmal atrial fibrillation as described below. The optimal sites of each catheter were determined by the temporal relationship between the bipolar atrial electrograms from the distal electrodes pair and P wave of the electrocardiogram. […]

[3] = high dose 3 mg/kg i.v., for 10-60 min

## CCCCc1oc2ccc(NS(C)(=O)=O)cc2c1C(=O)c1ccc(OCCCN(CCCC)CCCC)cc1.Cl [Dronedarone]
[1]
  acute toxicity and fatality in vivo: No acute toxicity nor fatality
CYP3A5
  CLint CYP3A5 reported by Hong et al: 2.604 µL/min/pmol

## Cl.[2H]c1c(NS(C)(=O)=O)c([2H])c2c(C(=O)c3ccc(OCCCN(CCCC)CCCC)cc3)c(CCCC)oc2c1[2H] [Poyendarone, Methanesulfonamide, N-(2-butyl-3-(4-(3-(dibutylamino)propoxy)benzoyl)-1-benzo(4,6,7-d3)-furan-5-yl)hydrochloride]
[1]; 3.0 mg/kg IV bolus, 3 mg/kg
  plasma disposition profile, clearance and volume of distribution compared between poyendarone and dronedarone: comparable
[1]
  acute toxicity and fatality in vivo: No acute toxicity nor fatality
[2]; 0.3 and 3 mg/kg i.v., experimental period
  lethal ventricular arrhythmias or hemodynamic collapse: No animals exerted any lethal ventricular arrhythmias or hemodynamic collapse leading to their death
[2]; 20 min after 3 mg/kg, pre-drug control 6.9 s
  duration of atrial fibrillation after burst pacing (typical tracing): 1.8 s
[2]; high dose 3 mg/kg i.v.
  effect on AERP(CL200): no significant change
  effect on VERP(CL400): no significant change
  effect on cycle length of atrial fibrillation: tended to be prolonged, which did not achieve statistical significance
  effect on mean blood pressure: hardly altered
  effect on sinoatrial rate: hardly altered
[2]; high dose 3 mg/kg i.v., at 10 min
  effect on IACT(CL300): prolonged
[2]; high dose 3 mg/kg i.v., at 10 min and for 30-60 min
  effect on IACT(CL400): prolonged
[2]; [3]
  effect on AERP(CL300): prolonged
  effect on AERP(CL400): prolonged
  effect on IACT(CL200): prolonged
  effect on duration of atrial fibrillation: shortened
[2]; low dose 0.3 mg/kg i.v.
  effect on AERP(CL200): no significant change
  effect on AERP(CL300): no significant change
  effect on IACT(CL200): did not alter
  effect on IACT(CL300): did not alter
  effect on IACT(CL400): did not alter
  effect on VERP(CL400): no significant change
  effect on cycle length of atrial fibrillation: did not alter
  effect on duration of atrial fibrillation: did not alter
  effect on mean blood pressure: hardly altered
  effect on sinoatrial rate: hardly altered
[2]; low dose 0.3 mg/kg i.v., at 20 min
  effect on AERP(CL400): prolonged
